This passage reports Kd, ΔTm and binding results from PMC12593396 (2025).

Structures are written as SMILES.

Assay [1] deals with Cy5–3WJ-T3 (DNA, junction) CGGAACGGCACTCGTTTCGAGTGCAGCGTGGTTTCCACGCTCGTTCCG
The assay can be described thus: MST. The conditions noted are these: 100 mM NaCl, 10 mM Na cacodylate.

The test system of assay [2] is 4WJ (DNA, junction) GCCTAGCATGATACTGCTACCG/CGGTAGCAGTACCGTTGGTGGC/GCCACCAACGGCGTCAACTGCC/GGCAGTTGACGTCATGCTAGGC
Kind of assay: UV melting. The conditions noted are these: 100 mM NaCl; 10 mM Na cacodylate; 1 equivalent compound.

Assay [3] has as its system 3WJ-T6 (DNA, junction) ACTCTTCTCGTTTTTTCGAGAGCGACTTTTTTGTCGCAGAGT
Kind of assay: ITC. The conditions noted are these: 100 mM NaCl, 10 mM sodium cacodylate, pH 7.4, 25 °C, at ITC detection limit.

In assay [4] the test system is FAM–4WJ (DNA, junction) GCCTAGCATGATACTGCTACCG/CGGTAGCAGTACCGTTGGTGGC/GCCACCAACGGCGTCAACTGCC/GGCAGTTGACGTCATGCTAGGC
Kind of assay: MST. As to conditions: 100 mM NaCl; 10 mM Na cacodylate; not saturated, highest 100 μM.

For assay [5], the system named is DS-21 (CD) (DNA, duplex) CCTTCACGCGAACGTAATCCT/AGGATTACGTTCGCGTGAAGG
Kind of assay: CD. As to conditions: 1 equivalent compound.

Assay [6] concerns Y-fork (DNA, junction) CGGTAGCAGTACCGTTGGTGGC/GCCACCAACGGCGTCAACTGCC
The assay can be described thus: PAGE competition. As to conditions: competes with 3WJ-FAM; ~22% decrease of 3WJ at 4 equivalents.

The test system of assay [7] is DS-21 (MST) (DNA, duplex) CCTTCACGCGAACGTAATCCT/AGGATTACGTTCGCGTGAAGG
The assay can be described thus: MST. As to conditions: highest tested 50 μM; authors suggest Kd at best high micromolar.

For orientation: Kd means a measure of binding affinity in units of concentration. The term ΔTm denotes the shift of the melting midpoint relative to a reference. Consider `C(=Nc1ccc(Cc2ccc(N=Cc3ccccn3)cc2)cc1)c1ccccn1.C(=Nc1ccc(Cc2ccc(N=Cc3ccccn3)cc2)cc1)c1ccccn1.C(=Nc1ccc(Cc2ccc(N=Cc3ccccn3)cc2)cc1)c1ccccn1.[Ni+2].[Ni+2]`, for which the Kd in assay [1] (0.1% Tween-20, 25 °C, 1 nM DNA) is 5.15 ± 0.67 × 10^–10 M; in assay [3], 7.17 ± 0.51 × 10^–9 M. In assay [2], the ΔTm stood at 8.8 ± 1.0 °C.

In the case of `[Pt+2].[Pt+2].c1cncc(Oc2ccc(Oc3cccnc3)cc2)c1.c1cncc(Oc2ccc(Oc3cccnc3)cc2)c1.c1cncc(Oc2ccc(Oc3cccnc3)cc2)c1.c1cncc(Oc2ccc(Oc3cccnc3)cc2)c1`, the Kd in assay [1] (0.1% Tween, 25 °C, 20 nM DNA) was 1.22 ± 0.22 × 10^–8 M; in assay [4], greater than 4 µM; in assay [3] (0.5% acetonitrile) it was 9.94 ± 4.36 × 10^–9 M. The ΔTm in assay [2] was found to be 6.0 ± 1.1 °C. For the same molecule, the binding result was “weak” in assay [5], “weak” in assay [6] and “no” in assay [7].
